Reference: article PMC12040169 (PLOS Biology, 2025)

Experiment: in vitro
Conditions: human, hela cells, % viability

Compared with `CN(CCc1cccnc1)CC(=O)Nc1cccc(Cl)c1` [CBK304108], `Cc1noc(C)c1NC(=O)CCc1cccnc1` [CBK200392] is higher in viability at 28.5 h, 10 µM: 93.1% for the first, 99.6% for the second.

First: O=C1C2C(c3ccccc3Cl)OC3(C(=O)c4ccccc4C3=O)C2C(=O)N1c1ccc([N+](=O)[O-])cc1 (stereo not shown) [CBK262425]
Second: O=C(Nc1ccccc1[N+](=O)[O-])c1cc(S(=O)(=O)NCc2ccccc2)c(Cl)cc1Cl [CBK263240]
The viability at 28.5 h, 10 µM of the first is higher: 101% for the first, 91.5% for the second.

Going from `CNC(=O)C1(Cc2cccc(-c3cccs3)c2)CCN(C(=O)c2ccccc2)CC1` [CBK285720] to `CCCNC(=O)C1(Cc2ccccc2-c2cccs2)CCN(C(=O)c2ccccc2)CC1` [CBK285694], the viability at 28.5 h, 10 µM rises from 88.3% to 95%.

Going from `CN(C)[C@H]1CCCC[C@@H]1OC(=O)c1ccc(C(F)(F)F)cc1` [CBK010550F] to `O=C(Nc1ccc(C(F)(F)F)cc1)N1CCC(n2c(=O)[nH]c3ccccc32)CC1` [CBK149847], the viability at 28.5 h, 10 µM falls from 90.1% to 83.1%.

Going from `COc1ccc(Cl)cc1N1CCN(CCCCC2NC(=O)NC2=O)CC1` (stereo not shown) [CBK126448] to `CCCN1CCC(CNC(=O)c2cc3c(OC)cccc3n2C)CC1` [CBK283255], the viability at 28.5 h, 10 µM rises from 89.4% to 90.1%.

Going from `CN1CCN(C(=O)c2ccccc2NC(=O)c2ccc(C(C)(C)C)cc2)CC1` [CBK270054] to `COCCNC(=O)c1ccc(-c2ccc(OC)cc2)nc1N1CCN(C(=O)c2ccco2)CC1` [CBK106010], the viability at 28.5 h, 10 µM falls from 93.4% to 88.1%.

First: CCC(NC(=O)c1ccc(C#CC2(O)CCCCC2)cc1)C(=O)O (stereo not shown) [CBK287160]
Second: Cc1cc(C(=O)NCCc2ccc(S(=O)(=O)NC(=O)NC3CCCCC3)cc2)n[nH]1 [CBK023997]
The viability at 28.5 h, 10 µM of the first is lower: 96.8% for the first, 99.1% for the second.

First: CCOC(=O)N1CCN(C2CCCN(Cc3cnc(N(C)C)s3)C2)CC1 (stereo not shown) [CBK307041]
Second: CCCS(=O)(=O)N1Cc2c(ncn2C)C[C@H]1C(=O)OC [CBK288991]
The viability at 28.5 h, 10 µM of the first is higher: 93.7% for the first, 90.2% for the second.

Going from `Cn1c(=O)c2c(ncn2CCCn2cnc3c2c(=O)n(C)c(=O)n3C)n(C)c1=O` [CBK268933] to `COc1ccc(-n2c(=O)[nH]c3ncc(-c4ccco4)nc32)c(C)c1` [CBK065019], the viability at 28.5 h, 10 µM falls from 106% to 101%.

Going from `CCN(CC)C(=O)c1cccc(OC)c1` [CBK012105] to `CN(C)S(=O)(=O)c1ccc(CCC(=O)O)cc1` [CBK287216], the viability at 28.5 h, 10 µM falls from 101% to 92%.

Compared with `O=[N+]([O-])c1cc(S(=O)(=O)N2CCCCCC2)ccc1NCc1ccccc1` [CBK262804], `COc1cc([N+](=O)[O-])ccc1NC(=O)CS(=O)(=O)Cc1ccccc1` [CBK266704] is higher in viability at 28.5 h, 10 µM: 88.3% for the first, 105% for the second.

First: CN(CC1COc2ccccc2O1)C(=O)CC1CCN(C(=O)CC2CCCCC2)CC1 (stereo not shown) [CBK286265]
Second: NC(=O)C1(Cc2ccccc2-c2ccccc2)CCN(C(=O)CCc2ccccc2)CC1 [CBK285595]
The viability at 28.5 h, 10 µM of the first is lower: 92.7% for the first, 107% for the second.

Compared with `c1ccc(-c2nccnc2OCCc2cccs2)cc1` [CBK106673], `O=C(CCOc1ccccc1F)Nc1cnc(-c2ccc(F)cc2)c(-c2ccsc2)n1` [CBK036897] is lower in viability at 28.5 h, 10 µM: 103% for the first, 99.7% for the second.

Compared with `Nc1ncc(-c2cccc(Br)c2)nc1NCCCO` [CBK063603], `Nc1ncc(-c2ccco2)nc1-c1ccc(F)c(Cl)c1` [CBK064013] is higher in viability at 28.5 h, 10 µM: 91.3% for the first, 106% for the second.

Going from `O=C(NC(=S)Nc1ccc(-c2ccc(CO)o2)cc1)c1ccc2c(c1)OCCO2` [CBK269038] to `O=C(NCc1nc2ccccc2s1)c1ccc2c(c1)OCCO2` [CBK295325], the viability at 28.5 h, 10 µM rises from 82.9% to 107%.

Compared with `CCOc1ccc(S(=O)(=O)N2CCN(S(=O)(=O)c3cccc([N+](=O)[O-])c3)CC2)cc1` [CBK266341], `Cc1ccc(S(=O)(=O)CC(=O)N2CCN(C(=O)c3ccco3)CC2)cc1` [CBK144469] is lower in viability at 28.5 h, 10 µM: 95.9% for the first, 87.1% for the second.

Compared with `O=C(O)CCC(=O)Nc1ccc2c(c1)Cc1ccccc1-2` [CBK286611], `O=C(Nc1ccc(Br)cc1)C1CC(O)CN1C(=O)OCc1ccccc1` (stereo not shown) [CBK263233] is higher in viability at 28.5 h, 10 µM: 94.9% for the first, 101% for the second.

Going from `CSc1nc(-c2ccccc2)nc(N)c1C(C)=O` [CBK270762] to `CSc1nc(NC(=O)C(C)c2ccccc2)cc(N2CCNCC2)n1` (stereo not shown) [CBK026742T], the viability at 28.5 h, 10 µM rises from 90.1% to 91.2%.

Going from `Cn1c2ccccc2c2cc(C(O)(CC(=O)CC(O)(c3ccc4c(c3)c3ccccc3n4C)C(F)(F)F)C(F)(F)F)ccc21` (stereo not shown) [CBK262254] to `CCc1cc2c(=O)c(-c3cnn(-c4ccccc4)c3)c(C(F)(F)F)oc2c(CN(C)C)c1O` [CBK264530], the viability at 28.5 h, 10 µM rises from 88% to 90.9%.

First: O=C(CSS(=O)(=O)O)NCc1ccccc1 [CBK260897N]
Second: O=C(O)CNS(=O)(=O)c1ccc(-c2ccccc2)cc1 [CBK034457]
The viability at 28.5 h, 10 µM of the first is higher: 105% for the first, 98.9% for the second.

First: OC(CNCCNc1nccc(C(F)(F)F)n1)Cn1ccc2ccccc21 (stereo not shown) [CBK074642]
Second: COc1ccccc1-c1ncc(OCC(F)(F)F)nc1NC(=O)C1CC1 [CBK145275]
The viability at 28.5 h, 10 µM of the first is higher: 106% for the first, 86.4% for the second.

First: CN(C)S(=O)(=O)c1ccc2[nH]cc(CCN)c2c1 [CBK268522C]
Second: O=S(=O)(Nc1cccc2nsnc12)c1cccs1 [CBK017018]
The viability at 28.5 h, 10 µM of the first is higher: 99.7% for the first, 75.6% for the second.

First: CC(=O)N(C)c1ccc(NC(=O)/C=C/C(=O)O)cc1 [CBK287162]
Second: Cc1ccc(NC(=O)CSc2cc(-n3nc(C)cc3C)ncn2)cc1 [CBK287820]
The viability at 28.5 h, 10 µM of the first is lower: 87% for the first, 89% for the second.

Compared with `O=C1NC2(CCCN(C(=O)c3cccs3)C2)Oc2ccccc21` (stereo not shown) [CBK284799], `O=C(c1cc[nH]c1)N1CCC2(CCN(Cc3ccccc3)CC2)C1` [CBK136756] is lower in viability at 28.5 h, 10 µM: 93% for the first, 86.9% for the second.

Compared with `Cc1cc(Cl)ccc1OCC(O)CN1CCN(Cc2ccc3c(c2)OCO3)CC1` (stereo not shown) [CBK074383], `O=C(CN1CCN(Cc2ccc3c(c2)OCO3)CC1)Nc1ccc(SC(F)(F)F)cc1` [CBK074385] is higher in viability at 28.5 h, 10 µM: 92.3% for the first, 108% for the second.

Going from `N/C(=N\OCC(=O)Nc1cccc([N+](=O)[O-])c1)c1nonc1N` [CBK262044] to `O=C(CSCc1c(Cl)cccc1Cl)Nc1cccc(-c2nnc(-c3ccccc3)o2)c1` [CBK267435], the viability at 28.5 h, 10 µM rises from 90% to 96.7%.

Compared with `O=C1Nc2ccccc2SC1(O)C(F)(F)F` (stereo not shown) [CBK025554], `O=C1Nc2ccccc2/C1=C/c1c[nH]cn1` [CBK115386] is lower in viability at 28.5 h, 10 µM: 114% for the first, 92.8% for the second.

First: COc1ccc(C(=O)NC(Nc2ccccc2)C(Cl)(Cl)Cl)cc1OC (stereo not shown) [CBK263680]
Second: COc1ccc([C@H]2CN(Cc3ccccc3)C[C@@H]2NC(=O)c2ccco2)cc1OC [CBK286478]
The viability at 28.5 h, 10 µM of the first is higher: 106% for the first, 88.4% for the second.

Going from `COCCn1c(CO)nnc1[C@H]1C[C@@H](NC(=O)c2ccc(F)cc2C)C1` [CBK306856] to `CC(=O)NCC1CC(c2ccc(OC(C)=O)c(Cl)n2)=NO1` (stereo not shown) [CBK010396], the viability at 28.5 h, 10 µM falls from 94.7% to 88.8%.

Compared with `Cc1ccc(S(=O)(=O)NCC2CCC(C(=O)Oc3ccc4ccc(=O)oc4c3)CC2)cc1` (stereo not shown) [CBK093519], `COc1ccc(CC(C(=O)Nc2ccc3nc[nH]c(=O)c3c2)c2ccccc2)cc1` (stereo not shown) [CBK285863] is higher in viability at 28.5 h, 10 µM: 87.9% for the first, 94.3% for the second.

Going from `O=C(Nc1nnc(-c2ccc3c(c2)OCCO3)o1)c1ccccc1F` [CBK287405] to `O=C(CSc1nnc(-c2ccccc2O)o1)c1ccc(Cl)cc1` [CBK068032], the viability at 28.5 h, 10 µM falls from 112% to 98.4%.

Going from `CC(=O)N1CCc2c([nH]c3ccccc23)C1CCN(C)Cc1ccc(F)cc1` (stereo not shown) [CBK066969] to `C[C@@H](NC(=O)N(Cc1ccc([N+](=O)[O-])cc1)CC(C)(C)N)c1cccc2ccccc12` [CBK004921], the viability at 28.5 h, 10 µM rises from 93.9% to 102%.

First: CCCCc1c(Cl)nc(C#N)c2c1CCCC2 [CBK020252]
Second: COCCNc1nc2c(c(N3CCCCCC3)n1)CCNCC2 [CBK306724]
The viability at 28.5 h, 10 µM of the first is lower: 98.9% for the first, 104% for the second.

Going from `O=C1c2ccccc2CN1c1ccc(Cl)cc1Cl` [CBK109908] to `Cn1ncc2c1C(=O)NC1c3ccccc3C(=O)N21` (stereo not shown) [CBK113668], the viability at 28.5 h, 10 µM falls from 95% to 94.3%.

Compared with `Cc1csc2ncc(C(=O)Nc3ccc(F)c(Cl)c3)c(=O)n12` [CBK287460], `COc1ccc(-c2cc(C(=O)Nc3ccc(F)c(Cl)c3)cnc2-c2cccc(C)c2)cc1` [CBK037488] is lower in viability at 28.5 h, 10 µM: 107% for the first, 93.3% for the second.

Compared with `CN1CCN(CCCOc2ccccc2OCc2ccccc2)CC1` [CBK269630C], `NC(=O)CC1C(=O)N(c2ccc(F)cc2)C(=O)N1NC(=O)CCc1ccccc1` (stereo not shown) [CBK269033] is higher in viability at 28.5 h, 10 µM: 90.4% for the first, 104% for the second.

Going from `c1ccc2cc(-c3cc(Nc4ccc5[nH]ccc5c4)ncn3)ccc2c1` [CBK090853] to `O=C(Nc1nc2c(Br)cccc2s1)c1nc2ccccc2s1` [CBK287619], the viability at 28.5 h, 10 µM rises from 80.1% to 92.2%.

First: O=C(c1ccc(OC(F)(F)F)cc1)N1CCC2(CCN(C(=O)c3cc(F)c(F)cc3F)C2)C1 (stereo not shown) [CBK131384]
Second: O=C(C1CC1)N1CCC2(CC1)Nc1cccnc1-n1cccc12 [CBK284504]
The viability at 28.5 h, 10 µM of the first is higher: 108% for the first, 107% for the second.

Going from `Cc1nc(COc2ccccc2Cl)sc1-c1ccnc(N)n1` [CBK057769] to `COCCNc1nc(-c2ccoc2)cn2ccnc12` [CBK066416], the viability at 28.5 h, 10 µM rises from 91.3% to 104%.

Compared with `c1ccc(-c2nnc(C3CCNCC3)[nH]2)nc1` [CBK288629G], `Nn1c(Cn2nnc3ccccc32)n[nH]c1=S` [CBK268233] is higher in viability at 28.5 h, 10 µM: 97% for the first, 111% for the second.

Going from `CC(C)c1nc(C(=O)NCC2CCCN(c3ncccn3)C2)cs1` (stereo not shown) [CBK304351] to `O=c1cc(N2CCCCC2)cnn1CCCn1cccn1` [CBK306907], the viability at 28.5 h, 10 µM falls from 100% to 90.1%.

Compared with `C/N=C1/c2cn3ccccc3c2CCN1C` [CBK022058], `Cc1cccc(-c2ncc(C(=O)NCCCN3CCCC3=O)cc2-c2ccco2)c1` [CBK037455] is lower in viability at 28.5 h, 10 µM: 116% for the first, 96.5% for the second.

Going from `N#C/C(=C\c1ccc(N2CCOCC2)cc1)c1nc2ncc(Br)cc2[nH]1` [CBK266294] to `O=C(/C=C/c1ccc([N+](=O)[O-])cc1)c1ccc(O)c(O)c1` [CBK265028], the viability at 28.5 h, 10 µM rises from 89.4% to 105%.

Compared with `O=C(c1cccs1)N(Cc1ccco1)c1ccc(O)cc1` [CBK269256], `COc1c(C(=O)O)cc(C)c2c1CCC2C` (stereo not shown) [CBK013617] is higher in viability at 28.5 h, 10 µM: 88.9% for the first, 101% for the second.
